Laboratory results: ChEMBL document CHEMBL4507320, “Data for DCP probe NVS-MALT1” (2021)

Key:
[1] = target: Muscarinic acetylcholine receptor M4 (Homo sapiens) (UniProt P08173); settings: Compound concentration 10.0 uM
[2] = target: RAF proto-oncogene serine/threonine-protein kinase (Homo sapiens) (UniProt P04049); settings: Compound concentration 1000.0 nM
[3] = target: Dual specificity protein kinase CLK3 (Homo sapiens) (UniProt P49761); settings: Compound concentration 1000.0 nM
[4] = target: Cyclin-dependent kinase 9 (Homo sapiens) (UniProt P50750); settings: Compound concentration 1000.0 nM
[5] = target: Phosphatidylinositol 4-phosphate 3-kinase C2 domain-containing subunit beta (Homo sapiens) (UniProt O00750); settings: Compound concentration 1000.0 nM
[6] = target: Serine/threonine-protein kinase PAK 2 (Homo sapiens) (UniProt Q13177); settings: Compound concentration 1000.0 nM
[7] = target: BDNF/NT-3 growth factors receptor (Homo sapiens) (UniProt Q16620); settings: Compound concentration 1000.0 nM
[8] = target: Leucine-rich repeat serine/threonine-protein kinase 2 (Homo sapiens) (UniProt Q5S007); settings: Compound concentration 1000.0 nM
[9] = target: Serine/threonine-protein kinase SIK3 (Homo sapiens) (UniProt Q9Y2K2); settings: Compound concentration 1000.0 nM
[10] = target: Eukaryotic translation initiation factor 2-alpha kinase 1 (Homo sapiens) (UniProt Q9BQI3); settings: Compound concentration 1000.0 nM
[11] = target: Serine/threonine-protein kinase DCLK3 (Homo sapiens) (UniProt Q9C098); settings: Compound concentration 1000.0 nM
[12] = test system: Mast/stem cell growth factor receptor Kit (Homo sapiens), P10721 [D816V]; settings: Compound concentration 1000.0 nM
[13] = target: NUAK family SNF1-like kinase 1 (Homo sapiens) (UniProt O60285); settings: Compound concentration 1000.0 nM
[14] = target: Dual specificity testis-specific protein kinase 1 (Homo sapiens) (UniProt Q15569); settings: Compound concentration 1000.0 nM
[15] = target: Glycogen synthase kinase-3 beta (Homo sapiens) (UniProt P49841); settings: Compound concentration 1000.0 nM
[16] = test system: Receptor-type tyrosine-protein kinase FLT3 (Homo sapiens), P36888 [UNDEFINED MUTATION]; settings: Compound concentration 1000.0 nM
[17] = target: Serine/threonine-protein kinase SIK2 (Homo sapiens) (UniProt Q9H0K1); settings: Compound concentration 1000.0 nM
[18] = target: Serine/threonine-protein kinase B-raf (Homo sapiens) (UniProt P15056); settings: Compound concentration 1000.0 nM
[19] = target: Serine/threonine-protein kinase NLK (Homo sapiens) (UniProt Q9UBE8); settings: Compound concentration 1000.0 nM
[20] = target: Mitogen-activated protein kinase kinase kinase 6 (Homo sapiens) (UniProt O95382); settings: Compound concentration 1000.0 nM
[21] = target: Mitogen-activated protein kinase 4 (Homo sapiens) (UniProt P31152); settings: Compound concentration 1000.0 nM
[22] = target: Cyclin-dependent kinase 2 homolog (Plasmodium falciparum (isolate 3D7)) (UniProt P61075); settings: Compound concentration 1000.0 nM
[23] = target: Cyclin-G-associated kinase (Homo sapiens) (UniProt O14976); settings: Compound concentration 1000.0 nM
[24] = target: Serine/threonine-protein kinase PRP4 homolog (Homo sapiens) (UniProt Q13523); settings: Compound concentration 1000.0 nM
[25] = target: Casein kinase I isoform gamma-2 (Homo sapiens) (UniProt P78368); settings: Compound concentration 1000.0 nM
[26] = target: Tyrosine-protein kinase SYK (Homo sapiens) (UniProt P43405); settings: Compound concentration 1000.0 nM
[27] = target: Homeodomain-interacting protein kinase 1 (Homo sapiens) (UniProt Q86Z02); settings: Compound concentration 1000.0 nM
[28] = target: Ephrin type-B receptor 3 (Homo sapiens) (UniProt P54753); settings: Compound concentration 1000.0 nM
[29] = target: Bone morphogenetic protein receptor type-2 (Homo sapiens) (UniProt Q13873); settings: Compound concentration 1000.0 nM
[30] = target: Serine/threonine-protein kinase Nek2 (Homo sapiens) (UniProt P51955); settings: Compound concentration 1000.0 nM
[31] = target: Serine/threonine-protein kinase TBK1 (Homo sapiens) (UniProt Q9UHD2); settings: Compound concentration 1000.0 nM
[32] = target: Calcium/calmodulin-dependent protein kinase type 1G (Homo sapiens) (UniProt Q96NX5); settings: Compound concentration 1000.0 nM
[33] = test system: Receptor-type tyrosine-protein kinase FLT3 (Homo sapiens), P36888 [D835H]; settings: Compound concentration 1000.0 nM
[34] = target: Muscarinic acetylcholine receptor M5 (Homo sapiens) (UniProt P08912); settings: Compound concentration 10.0 uM
[35] = target: D(1B) dopamine receptor (Homo sapiens) (UniProt P21918); settings: Compound concentration 10.0 uM
[36] = target: Rhodopsin kinase GRK7 (Homo sapiens) (UniProt Q8WTQ7); settings: Compound concentration 1000.0 nM
[37] = target: Cyclin-dependent kinase 4 (Homo sapiens) (UniProt P11802); settings: Compound concentration 1000.0 nM
[38] = target: Serine/threonine-protein kinase LATS1 (Homo sapiens) (UniProt O95835); settings: Compound concentration 1000.0 nM
[39] = target: Cyclin-dependent kinase 15 (Homo sapiens) (UniProt Q96Q40); settings: Compound concentration 1000.0 nM
[40] = target: Serine/threonine-protein kinase 38 (Homo sapiens) (UniProt Q15208); settings: Compound concentration 1000.0 nM
[41] = target: Serine/threonine-protein kinase RIO2 (Homo sapiens) (UniProt Q9BVS4); settings: Compound concentration 1000.0 nM
[42] = target: Tyrosine-protein kinase ABL2 (Homo sapiens) (UniProt P42684); settings: Compound concentration 1000.0 nM
[43] = target: Histamine H2 receptor (Homo sapiens) (UniProt P25021); settings: Compound concentration 10.0 uM
[44] = target: Insulin receptor-related protein (Homo sapiens) (UniProt P14616); settings: Compound concentration 1000.0 nM
[45] = target: Cyclin-dependent kinase 4 (Homo sapiens) (UniProt P11802); settings: Compound concentration 1000.0 nM; remark: listed apart in the source

Cyclin-dependent kinase 4 (Homo sapiens), sequence (P11802 whole entry): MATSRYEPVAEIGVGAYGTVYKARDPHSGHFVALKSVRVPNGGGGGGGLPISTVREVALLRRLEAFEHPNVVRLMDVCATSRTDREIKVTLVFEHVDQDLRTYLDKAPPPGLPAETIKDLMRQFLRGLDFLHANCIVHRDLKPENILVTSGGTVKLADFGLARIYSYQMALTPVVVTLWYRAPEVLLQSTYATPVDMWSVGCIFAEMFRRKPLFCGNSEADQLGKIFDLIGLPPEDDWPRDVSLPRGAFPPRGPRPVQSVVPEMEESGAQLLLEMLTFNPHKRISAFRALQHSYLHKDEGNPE
Insulin receptor-related protein (Homo sapiens), sequence (P14616 27-742 limits assumed): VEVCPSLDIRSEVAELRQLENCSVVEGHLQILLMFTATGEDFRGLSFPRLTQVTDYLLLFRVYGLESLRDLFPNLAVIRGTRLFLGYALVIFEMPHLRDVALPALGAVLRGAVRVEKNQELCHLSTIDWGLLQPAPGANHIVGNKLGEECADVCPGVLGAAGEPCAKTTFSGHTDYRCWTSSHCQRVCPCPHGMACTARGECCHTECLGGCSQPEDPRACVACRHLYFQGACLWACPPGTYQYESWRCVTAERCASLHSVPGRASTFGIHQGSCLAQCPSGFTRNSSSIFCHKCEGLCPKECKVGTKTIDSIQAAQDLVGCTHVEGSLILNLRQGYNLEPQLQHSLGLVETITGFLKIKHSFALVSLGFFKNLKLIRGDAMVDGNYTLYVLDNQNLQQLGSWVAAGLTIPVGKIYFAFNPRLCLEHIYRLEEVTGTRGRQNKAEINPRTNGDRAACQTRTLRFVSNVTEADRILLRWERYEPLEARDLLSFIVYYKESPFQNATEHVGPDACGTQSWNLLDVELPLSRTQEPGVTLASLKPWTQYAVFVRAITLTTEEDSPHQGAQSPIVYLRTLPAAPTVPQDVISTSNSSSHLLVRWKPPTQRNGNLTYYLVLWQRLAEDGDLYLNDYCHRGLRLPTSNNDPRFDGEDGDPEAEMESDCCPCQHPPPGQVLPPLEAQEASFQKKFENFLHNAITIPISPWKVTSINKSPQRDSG
Insulin receptor-related protein (Homo sapiens), sequence (P14616 747-1297 limits assumed): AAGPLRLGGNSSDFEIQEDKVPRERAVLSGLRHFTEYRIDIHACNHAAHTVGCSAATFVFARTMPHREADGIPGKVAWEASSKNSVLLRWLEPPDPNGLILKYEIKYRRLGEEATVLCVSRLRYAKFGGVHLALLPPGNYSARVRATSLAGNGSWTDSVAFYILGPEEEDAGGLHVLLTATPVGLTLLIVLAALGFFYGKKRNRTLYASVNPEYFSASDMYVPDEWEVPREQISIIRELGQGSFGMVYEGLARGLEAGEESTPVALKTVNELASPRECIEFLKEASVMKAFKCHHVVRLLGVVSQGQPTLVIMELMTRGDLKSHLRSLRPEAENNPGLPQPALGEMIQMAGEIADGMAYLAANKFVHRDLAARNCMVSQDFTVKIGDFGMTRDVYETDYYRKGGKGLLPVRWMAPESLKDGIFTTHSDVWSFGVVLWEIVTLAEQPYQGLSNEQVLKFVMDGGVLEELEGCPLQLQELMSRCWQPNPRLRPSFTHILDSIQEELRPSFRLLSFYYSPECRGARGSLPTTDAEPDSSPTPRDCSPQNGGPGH
Casein kinase I isoform gamma-2 (Homo sapiens), sequence (P78368 whole entry, looked up, canonical isoform): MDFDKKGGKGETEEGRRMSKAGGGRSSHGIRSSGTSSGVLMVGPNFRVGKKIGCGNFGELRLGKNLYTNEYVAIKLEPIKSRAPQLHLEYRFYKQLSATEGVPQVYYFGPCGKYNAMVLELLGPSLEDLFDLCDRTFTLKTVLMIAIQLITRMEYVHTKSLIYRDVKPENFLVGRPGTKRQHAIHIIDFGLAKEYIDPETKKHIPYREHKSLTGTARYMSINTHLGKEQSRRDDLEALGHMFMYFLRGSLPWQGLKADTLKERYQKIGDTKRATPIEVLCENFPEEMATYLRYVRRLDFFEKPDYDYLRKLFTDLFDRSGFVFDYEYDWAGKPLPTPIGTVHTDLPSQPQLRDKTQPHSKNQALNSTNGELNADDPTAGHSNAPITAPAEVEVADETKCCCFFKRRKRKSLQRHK
Serine/threonine-protein kinase DCLK3 (Homo sapiens), sequence (Q9C098 whole entry): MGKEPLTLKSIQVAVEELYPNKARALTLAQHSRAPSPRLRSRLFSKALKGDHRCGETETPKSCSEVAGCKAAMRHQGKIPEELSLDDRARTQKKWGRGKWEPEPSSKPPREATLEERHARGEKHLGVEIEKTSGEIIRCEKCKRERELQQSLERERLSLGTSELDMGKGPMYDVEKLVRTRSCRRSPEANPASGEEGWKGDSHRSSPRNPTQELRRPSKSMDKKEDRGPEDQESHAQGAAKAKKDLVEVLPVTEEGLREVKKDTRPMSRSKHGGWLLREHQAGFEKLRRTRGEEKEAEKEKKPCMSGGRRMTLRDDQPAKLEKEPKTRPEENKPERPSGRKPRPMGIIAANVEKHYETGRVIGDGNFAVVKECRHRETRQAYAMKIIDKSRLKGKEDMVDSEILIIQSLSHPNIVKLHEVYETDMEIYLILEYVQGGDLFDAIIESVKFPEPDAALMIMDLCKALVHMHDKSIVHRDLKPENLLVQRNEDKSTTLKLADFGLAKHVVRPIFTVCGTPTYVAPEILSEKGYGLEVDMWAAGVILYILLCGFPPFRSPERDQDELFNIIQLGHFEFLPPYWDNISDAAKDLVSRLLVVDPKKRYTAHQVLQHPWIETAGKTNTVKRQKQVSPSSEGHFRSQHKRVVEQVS
Histamine H2 receptor (Homo sapiens), sequence (P25021 whole entry): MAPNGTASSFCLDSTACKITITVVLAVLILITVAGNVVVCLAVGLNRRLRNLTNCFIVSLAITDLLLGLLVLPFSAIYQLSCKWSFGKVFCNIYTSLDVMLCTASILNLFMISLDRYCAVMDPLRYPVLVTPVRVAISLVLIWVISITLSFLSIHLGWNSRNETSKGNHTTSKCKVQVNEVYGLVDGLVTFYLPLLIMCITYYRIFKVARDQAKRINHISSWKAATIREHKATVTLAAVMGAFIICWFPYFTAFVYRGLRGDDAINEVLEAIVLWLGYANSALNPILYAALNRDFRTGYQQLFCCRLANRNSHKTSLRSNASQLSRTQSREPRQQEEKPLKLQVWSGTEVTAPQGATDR
Dual specificity testis-specific protein kinase 1 (Homo sapiens), sequence (Q15569 whole entry, looked up): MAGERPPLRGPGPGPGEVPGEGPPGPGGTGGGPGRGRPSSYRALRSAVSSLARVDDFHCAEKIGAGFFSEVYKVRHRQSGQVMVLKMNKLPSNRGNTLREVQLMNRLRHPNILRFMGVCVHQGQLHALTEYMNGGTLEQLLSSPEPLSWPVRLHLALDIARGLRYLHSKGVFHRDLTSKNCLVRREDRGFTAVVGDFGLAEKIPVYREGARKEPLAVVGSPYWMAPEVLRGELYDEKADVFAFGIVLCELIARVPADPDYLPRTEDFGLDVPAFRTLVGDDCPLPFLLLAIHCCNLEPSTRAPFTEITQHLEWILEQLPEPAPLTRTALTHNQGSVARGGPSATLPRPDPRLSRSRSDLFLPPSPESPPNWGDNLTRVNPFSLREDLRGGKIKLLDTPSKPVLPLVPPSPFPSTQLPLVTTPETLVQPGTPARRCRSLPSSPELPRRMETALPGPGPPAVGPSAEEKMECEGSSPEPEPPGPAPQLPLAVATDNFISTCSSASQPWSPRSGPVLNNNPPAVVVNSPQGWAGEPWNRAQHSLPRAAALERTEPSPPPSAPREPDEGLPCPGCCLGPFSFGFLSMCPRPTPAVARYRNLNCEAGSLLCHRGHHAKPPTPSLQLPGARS
Serine/threonine-protein kinase 38 (Homo sapiens), sequence (Q15208 2-465 limits assumed): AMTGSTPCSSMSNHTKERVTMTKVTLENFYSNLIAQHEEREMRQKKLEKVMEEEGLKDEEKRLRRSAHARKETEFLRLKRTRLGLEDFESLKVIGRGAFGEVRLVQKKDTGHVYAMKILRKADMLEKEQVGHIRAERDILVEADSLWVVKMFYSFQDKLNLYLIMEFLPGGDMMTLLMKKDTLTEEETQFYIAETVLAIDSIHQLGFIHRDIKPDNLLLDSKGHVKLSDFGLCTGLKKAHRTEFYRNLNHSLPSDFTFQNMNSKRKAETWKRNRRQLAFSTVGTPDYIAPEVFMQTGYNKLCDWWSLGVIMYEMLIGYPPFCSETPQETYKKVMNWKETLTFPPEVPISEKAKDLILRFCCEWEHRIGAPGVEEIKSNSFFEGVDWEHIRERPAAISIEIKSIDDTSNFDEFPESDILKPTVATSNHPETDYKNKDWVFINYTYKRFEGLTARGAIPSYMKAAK
Serine/threonine-protein kinase NLK (Homo sapiens), sequence (Q9UBE8 whole entry): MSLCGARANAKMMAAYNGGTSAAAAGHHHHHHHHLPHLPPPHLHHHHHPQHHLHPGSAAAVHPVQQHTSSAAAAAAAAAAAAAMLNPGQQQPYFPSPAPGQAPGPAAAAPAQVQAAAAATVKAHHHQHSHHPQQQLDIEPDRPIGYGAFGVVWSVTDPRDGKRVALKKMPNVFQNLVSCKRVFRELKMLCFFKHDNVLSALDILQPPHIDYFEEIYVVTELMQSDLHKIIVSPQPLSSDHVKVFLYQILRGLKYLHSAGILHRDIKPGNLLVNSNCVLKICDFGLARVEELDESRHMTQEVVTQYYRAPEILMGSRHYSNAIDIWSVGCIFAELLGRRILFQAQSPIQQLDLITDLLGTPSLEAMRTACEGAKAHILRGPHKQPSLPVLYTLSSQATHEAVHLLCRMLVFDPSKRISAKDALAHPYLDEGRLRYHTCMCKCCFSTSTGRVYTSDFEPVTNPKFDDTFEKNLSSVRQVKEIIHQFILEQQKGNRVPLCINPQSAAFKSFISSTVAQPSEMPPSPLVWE
Cyclin-dependent kinase 2 homolog (Plasmodium falciparum (isolate 3D7)), sequence (P61075 whole entry): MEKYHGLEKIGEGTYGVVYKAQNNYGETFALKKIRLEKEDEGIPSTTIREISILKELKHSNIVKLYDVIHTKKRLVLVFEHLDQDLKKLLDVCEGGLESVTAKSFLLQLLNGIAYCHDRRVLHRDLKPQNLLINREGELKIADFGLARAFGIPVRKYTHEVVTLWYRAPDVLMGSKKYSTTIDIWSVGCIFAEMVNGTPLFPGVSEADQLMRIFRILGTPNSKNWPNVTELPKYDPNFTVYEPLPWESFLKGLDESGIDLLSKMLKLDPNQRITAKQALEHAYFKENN

CO[C@@H](C)c1c(Nc2ccc([C@H](N(C)C(=O)C3CCS(=O)(=O)CC3)C(F)(F)F)cc2)cnc2cc(Cl)nn12 [NVS-MALT1]
inhibition [1]: 21.3% | residual activity [2]: 97% | residual activity [3]: 87% | residual activity [4]: 85% | residual activity [5]: 97% | residual activity [6]: 76% | residual activity [7]: 100% | residual activity [8]: 100% | residual activity [9]: 100% | residual activity [10]: 100% | residual activity [11]: 100% | residual activity [12]: 96% | residual activity [13]: 98% | residual activity [14]: 85% | residual activity [15]: 100% | residual activity [16]: 85% | residual activity [17]: 87% | residual activity [18]: 85% | residual activity [19]: 83% | residual activity [20]: 100% | residual activity [21]: 94% | residual activity [22]: 100% | residual activity [23]: 98% | residual activity [24]: 100% | residual activity [25]: 93% | residual activity [26]: 82% | residual activity [27]: 40% | residual activity [28]: 100% | residual activity [29]: 91% | residual activity [30]: 100% | residual activity [31]: 59% | residual activity [32]: 100% | residual activity [33]: 75% | inhibition [34]: 14.6% | inhibition [35]: 9.7% | residual activity [36]: 100% | residual activity [37]: 100% | residual activity [38]: 88% | residual activity [39]: 74% | residual activity [40]: 83% | residual activity [41]: 90% | residual activity [42]: 85% | inhibition [43]: -9.88% | residual activity [44]: 94% | residual activity [45]: 100%

CO[C@@H](C)c1c(Nc2ccc([C@@H](N(C)C(=O)C3CCS(=O)(=O)CC3)C(F)(F)F)cc2)cnc2cc(Cl)nn12 [NVS-MALT1-C]
inhibition [1]: 21.1% | residual activity [2]: 100% | residual activity [3]: 87% | residual activity [4]: 100% | residual activity [5]: 89% | residual activity [6]: 81% | residual activity [7]: 100% | residual activity [8]: 100% | residual activity [9]: 100% | residual activity [10]: 100% | residual activity [11]: 100% | residual activity [12]: 99% | residual activity [13]: 99% | residual activity [14]: 83% | residual activity [15]: 100% | residual activity [16]: 59% | residual activity [17]: 92% | residual activity [18]: 76% | residual activity [19]: 84% | residual activity [20]: 100% | residual activity [21]: 100% | residual activity [22]: 100% | residual activity [23]: 93% | residual activity [24]: 91% | residual activity [25]: 84% | residual activity [26]: 90% | residual activity [27]: 56% | residual activity [28]: 100% | residual activity [29]: 84% | residual activity [30]: 94% | residual activity [31]: 77% | residual activity [32]: 100% | residual activity [33]: 63% | inhibition [34]: 7.57% | inhibition [35]: 4.72% | residual activity [36]: 100% | residual activity [37]: 100% | residual activity [38]: 98% | residual activity [39]: 94% | residual activity [40]: 88% | residual activity [41]: 89% | residual activity [42]: 84% | inhibition [43]: 5.46% | residual activity [44]: 89% | residual activity [45]: 100%
